Columns and labels:
Plasmodium falciparum = assay: Antimicrobial activity against chloroquine-resistant Plasmodium falciparum W2; type: functional, organism-based
[1] = Inhibition of recombinant Plasmodium falciparum falcipain-2

Q: Which IC50 (Plasmodium falciparum) does the source give for `COc1ccc(C(=O)/C=C/c2cccc(OCc3cn(CC(O)CN4C(=O)C(=O)c5cc(Cl)ccc54)nn3)c2)c(OC)c1` (stereo not given) here?
A: 6.8 µM

Q: What about the IC50 [1] of the same compound?
A: 3.17 µM

Q: For `CCN(CC)CCCC(C)Nc1ccnc2cc(Cl)ccc12` (stereo not given) [CHLOROQUINE], which IC50 [1] is on record?
A: 0.0694 µM

Q: For `COc1ccc(/C=C/C(=O)c2ccccc2OCc2cn(CC(O)COC3=C(C)C(=O)SC3C)nn2)cc1` (stereo not given), which IC50 (Plasmodium falciparum) is on record?
A: > 100 µM

Q: And the IC50 [1]?
A: 2.64 µM

Q: With `CC1=C(O)SC(C)C1=O` (stereo not given) [THIOLACTONE] as the compound, how does the IC50 (Plasmodium falciparum) read?
A: > 100 µM

Q: And the IC50 [1]?
A: > 20 µM

Q: For `O=C1Nc2ccccc2C1=O` [ISATIN], which IC50 (Plasmodium falciparum) is on record?
A: > 100 µM

Q: And the IC50 [1]?
A: > 20 µM

Q: Which results are given for `COc1ccc(C(=O)/C=C/c2cccc(OCc3cn(CC(O)COC4=C(C)C(=O)SC4C)nn3)c2)cc1` (stereo not given)?
A: IC50 (Plasmodium falciparum): > 100 µM; IC50 [1]: 2.43 µM

Q: Which IC50 (Plasmodium falciparum) does the source give for `COc1ccc(C(=O)/C=C/c2ccc(OCc3cn(CC(O)COC4=C(C)C(=O)SC4C)nn3)cc2)c(OC)c1OC` (stereo not given) here?
A: > 100 µM

Q: What about the IC50 [1] of the same compound?
A: 5.04 µM

Q: With `COc1ccc(/C=C/C(=O)c2ccccc2OCc2cn(CC(O)CN3C(=O)C(=O)c4cc(Cl)ccc43)nn2)c(OC)c1OC` (stereo not given) as the compound, how does the IC50 (Plasmodium falciparum) read?
A: 15.3 µM

Q: And the IC50 [1]?
A: 6.21 µM

Q: Which IC50 (Plasmodium falciparum) does the source give for `COc1ccc(/C=C/C(=O)c2ccc(OCc3cn(CC(O)COC4=C(C)C(=O)SC4C)nn3)cc2)c(OC)c1` (stereo not given) here?
A: 28.5 µM

Q: And the IC50 [1]?
A: 3.1 µM

Q: For `COc1ccc(/C=C/C(=O)c2ccccc2OCc2cn(CC(O)CN3C(=O)C(=O)c4cc(Cl)ccc43)nn2)cc1` (stereo not given), which IC50 (Plasmodium falciparum) is on record?
A: 16 µM

Q: And the IC50 [1]?
A: 7.79 µM

Q: With `COc1ccc(C(=O)/C=C/c2ccccc2OCc2cn(CC(O)CN3C(=O)C(=O)c4cc(Cl)ccc43)nn2)cc1` (stereo not given) as the compound, how does the IC50 (Plasmodium falciparum) read?
A: 25.4 µM

Q: And the IC50 [1]?
A: > 20 µM

Q: Which IC50 (Plasmodium falciparum) does the source give for `COc1ccc(/C=C/C(=O)c2ccc(OCc3cn(CC(O)CN4C(=O)C(=O)c5cc(Cl)ccc54)nn3)cc2)cc1` (stereo not given) here?
A: 15.9 µM

Q: And the IC50 [1]?
A: 14.9 µM

Q: What does the source list for `COc1ccc(C(=O)/C=C/c2ccccc2OCc2cn(CC(O)CN3C(=O)C(=O)c4cc(Cl)ccc43)nn2)c(OC)c1` (stereo not given)?
A: IC50 (Plasmodium falciparum): 15.6 µM; IC50 [1]: > 20 µM

Q: Which IC50 (Plasmodium falciparum) does the source give for `COc1ccc(C(=O)/C=C/c2ccc(OCc3cn(CC(O)CN4C(=O)C(=O)c5cc(Cl)ccc54)nn3)cc2)c(OC)c1OC` (stereo not given) here?
A: 16.6 µM

Q: What about the IC50 [1] of the same compound?
A: 11 µM

Q: For `COc1ccc(/C=C/C(=O)c2ccc(OCc3cn(CC(O)COC4=C(C)C(=O)SC4C)nn3)cc2)cc1` (stereo not given), which IC50 (Plasmodium falciparum) is on record?
A: > 100 µM

Q: What about the IC50 [1] of the same compound?
A: 6.08 µM

Q: Which IC50 (Plasmodium falciparum) does the source give for `COc1ccc(/C=C/C(=O)c2ccccc2OCc2cn(CC(O)COC3=C(C)C(=O)SC3C)nn2)c(OC)c1` (stereo not given) here?
A: > 100 µM

Q: And the IC50 [1]?
A: 2.14 µM

Q: For `COc1ccc(C(=O)/C=C/c2cccc(OCc3cn(CC(O)COC4=C(C)C(=O)SC4C)nn3)c2)c(OC)c1OC` (stereo not given), which IC50 (Plasmodium falciparum) is on record?
A: > 100 µM

Q: And the IC50 [1]?
A: 2 µM

Q: For `COc1ccc(/C=C/C(=O)c2cccc(OCc3cn(CC(O)CN4C(=O)C(=O)c5cc(Cl)ccc54)nn3)c2)cc1` (stereo not given), which IC50 (Plasmodium falciparum) is on record?
A: 9.91 µM

Q: What about the IC50 [1] of the same compound?
A: 3.57 µM

Q: With `COc1ccc(C(=O)/C=C/c2cccc(OCc3cn(CC(O)COC4=C(C)C(=O)SC4C)nn3)c2)c(OC)c1` (stereo not given) as the compound, how does the IC50 (Plasmodium falciparum) read?
A: > 100 µM

Q: And the IC50 [1]?
A: 1.64 µM

Q: For `COc1ccc(C(=O)/C=C/c2ccc(OCc3cn(CC(O)COC4=C(C)C(=O)SC4C)nn3)cc2)c(OC)c1` (stereo not given), which IC50 (Plasmodium falciparum) is on record?
A: > 100 µM

Q: What about the IC50 [1] of the same compound?
A: 1.54 µM

Q: What does the source list for `COc1ccc(C(=O)/C=C/c2cccc(OCc3cn(CC(O)CN4C(=O)C(=O)c5cc(Cl)ccc54)nn3)c2)cc1` (stereo not given)?
A: IC50 (Plasmodium falciparum): 10.3 µM; IC50 [1]: 5.75 µM

Q: For `COC1(OC)C(=O)N(CC(O)CN=[N+]=[N-])c2ccc(Cl)cc21` (stereo not given), which IC50 (Plasmodium falciparum) is on record?
A: > 100 µM

Q: What about the IC50 [1] of the same compound?
A: > 20 µM

Q: For `COc1ccc(/C=C/C(=O)c2ccc(OCc3cn(CC(O)COC4=C(C)C(=O)SC4C)nn3)cc2)c(OC)c1OC` (stereo not given), which IC50 (Plasmodium falciparum) is on record?
A: > 100 µM

Q: What about the IC50 [1] of the same compound?
A: 0.81 µM

Q: For `COc1ccc(/C=C/C(=O)c2ccccc2OCc2cn(CC(O)CN3C(=O)C(=O)c4cc(Cl)ccc43)nn2)c(OC)c1` (stereo not given), which IC50 (Plasmodium falciparum) is on record?
A: 15 µM

Q: What about the IC50 [1] of the same compound?
A: 2.09 µM

Q: What does the source list for `C=C/C(C)=C/[C@@]1(C)SC(=O)C(C)=C1O` [THIOLACTOMYCIN]?
A: IC50 (Plasmodium falciparum): > 100 µM; IC50 [1]: > 20 µM

Q: For `COc1ccc(C(=O)/C=C/c2ccc(OCc3cn(CC(O)CN4C(=O)C(=O)c5cc(Cl)ccc54)nn3)cc2)c(OC)c1` (stereo not given), which IC50 [1] is on record?
A: 9.73 µM

Q: For `CC1=C(OCC(O)CN=[N+]=[N-])C(C)SC1=O` (stereo not given), which IC50 (Plasmodium falciparum) is on record?
A: > 100 µM

Q: And the IC50 [1]?
A: > 20 µM

Q: For `COc1ccc(C(=O)/C=C/c2ccccc2OCc2cn(CC(O)CN3C(=O)C(=O)c4cc(Cl)ccc43)nn2)c(OC)c1OC` (stereo not given), which IC50 (Plasmodium falciparum) is on record?
A: 90.5 µM

Q: And the IC50 [1]?
A: 6.1 µM

Q: With `COc1ccc(C(=O)/C=C/c2cccc(OCc3cn(CC(O)CN4C(=O)C(=O)c5cc(Cl)ccc54)nn3)c2)c(OC)c1OC` (stereo not given) as the compound, how does the IC50 (Plasmodium falciparum) read?
A: 11.5 µM

Q: And the IC50 [1]?
A: 2.18 µM

Q: With `COc1ccc(C(=O)/C=C/c2ccccc2OCc2cn(CC(O)COC3=C(C)C(=O)SC3C)nn2)c(OC)c1` (stereo not given) as the compound, how does the IC50 (Plasmodium falciparum) read?
A: > 100 µM

Q: What about the IC50 [1] of the same compound?
A: 2.08 µM

Q: With `COc1ccc(/C=C/C(=O)c2cccc(OCc3cn(CC(O)CN4C(=O)C(=O)c5cc(Cl)ccc54)nn3)c2)c(OC)c1OC` (stereo not given) as the compound, how does the IC50 (Plasmodium falciparum) read?
A: 16.7 µM

Q: What about the IC50 [1] of the same compound?
A: 2.57 µM

Q: Which IC50 (Plasmodium falciparum) does the source give for `COc1ccc(/C=C/C(=O)c2cccc(OCc3cn(CC(O)COC4=C(C)C(=O)SC4C)nn3)c2)c(OC)c1` (stereo not given) here?
A: > 100 µM

Q: And the IC50 [1]?
A: 3.51 µM

Q: For `COc1ccc(/C=C/C(=O)c2cccc(OCc3cn(CC(O)COC4=C(C)C(=O)SC4C)nn3)c2)c(OC)c1OC` (stereo not given), which IC50 (Plasmodium falciparum) is on record?
A: > 100 µM

Q: What about the IC50 [1] of the same compound?
A: 0.68 µM

Q: Which IC50 (Plasmodium falciparum) does the source give for `COc1ccc(C(=O)/C=C/c2ccc(OCc3cn(CC(O)CN4C(=O)C(=O)c5cc(Cl)ccc54)nn3)cc2)cc1` (stereo not given) here?
A: 10.8 µM

Q: And the IC50 [1]?
A: 10.6 µM

Q: Which IC50 (Plasmodium falciparum) does the source give for `COc1ccc(/C=C/C(=O)c2ccc(OCc3cn(CC(O)CN4C(=O)C(=O)c5cc(Cl)ccc54)nn3)cc2)c(OC)c1OC` (stereo not given) here?
A: 25.1 µM

Q: What about the IC50 [1] of the same compound?
A: > 20 µM

Q: Which IC50 (Plasmodium falciparum) does the source give for `COc1ccc(C(=O)/C=C/c2ccccc2OCc2cn(CC(O)COC3=C(C)C(=O)SC3C)nn2)c(OC)c1OC` (stereo not given) here?
A: > 100 µM

Q: And the IC50 [1]?
A: 1.14 µM

Q: Which IC50 (Plasmodium falciparum) does the source give for `COc1ccc(/C=C/C(=O)c2cccc(OCc3cn(CC(O)COC4=C(C)C(=O)SC4C)nn3)c2)cc1` (stereo not given) here?
A: > 100 µM

Q: What about the IC50 [1] of the same compound?
A: 3.69 µM

Q: With `COc1ccc(/C=C/C(=O)c2cccc(OCc3cn(CC(O)CN4C(=O)C(=O)c5cc(Cl)ccc54)nn3)c2)c(OC)c1` (stereo not given) as the compound, how does the IC50 (Plasmodium falciparum) read?
A: 10.6 µM

Q: What about the IC50 [1] of the same compound?
A: 2.95 µM

Q: With `COc1ccc(C(=O)/C=C/c2ccccc2OCc2cn(CC(O)COC3=C(C)C(=O)SC3C)nn2)cc1` (stereo not given) as the compound, how does the IC50 (Plasmodium falciparum) read?
A: > 100 µM

Q: And the IC50 [1]?
A: 2.31 µM

Q: What does the source list for `COc1ccc(C(=O)/C=C/c2ccc(OCc3cn(CC(O)COC4=C(C)C(=O)SC4C)nn3)cc2)cc1` (stereo not given)?
A: IC50 (Plasmodium falciparum): > 100 µM; IC50 [1]: 3.12 µM

Q: For `COc1ccc(/C=C/C(=O)c2ccc(OCc3cn(CC(O)CN4C(=O)C(=O)c5cc(Cl)ccc54)nn3)cc2)c(OC)c1` (stereo not given), which IC50 (Plasmodium falciparum) is on record?
A: 18.3 µM

Q: And the IC50 [1]?
A: 14.5 µM
